This is an account of results in patent publication US8686178B2, “Derivative of 18β-glycyrrhetinic acid apt to suppress cancer cells” (Kaohsiung Medical University, priority 2011, dated 2014).

Data set [1] relates to human bladder cancer cell line NTUB1. Briefly: Trial (A): cytotoxic effect, IC50 by median-effect analysis. The settings on record: NTUB1 cells; for cytotoxic effect against cancer cell: with reference to TABLE 2; for IC50: mean ± SD. Format: cell-based. From the text: (§1) For the sake of proving therapeutic effects of the derivatives of 18β-glycyrrhetinic acid of the present invention, including 10, 11, 13-17 and 21-25, in treating of cancer, human bladder cancer cell line NTUB1, human prostate cancer cell line PC3 cataloged as CRL-1435 (reference to J. Formosan Med. Assoc. 1992; 91:608-13), and immortalized normal human urothelial cells SV-HUC1 cataloged as CRL-9520 are purchased from American Type Culture Collection (ATCC; Rockville, USA) and maintained in a culturing medium respectively till at a preferable density to carry out a serial of trials (comprising trial A to G) for evaluating cytotoxicities of the derivatives of 18β-glycyrrhetinic acid against cancer cells, and mechanisms thereof.
In the present invention, the NTUB1 and the PC3 is but not limit to be maintained in RPMI 1640 medium supplemented 10% fetal bovine serum (FBS), 100 unit/mL penicillin-G, 100 μg/mL streptomycin, and 2 mM L-glutamine, yet the SV-HUC1 is maintained in F12 medium supplemented with 10% fetal bovine serum (FBS), 100 unit/mL penicillin-G, 100 μg/mL streptomycin, and 2 mM L-glutamine, culturing at 37° C. in a humidified atmosphere containing 5% CO2 till at a density of 70% per well, followed by repeatedly suspending cells in each well with an ethylene diamine tetra-acetic acid buffer (EDTA buffer; Merck) and counting cell numbers.
In the present invention, the IC50 values of each group are presented as mean±standard deviation (SD).

In the next data set the test system is NTUB1. Put plainly: Trial (B): MTT cytotoxicity assay, 72 hours. The class given is cell-based, human. The settings on record: 0-50 μM.
Text: as §1, with “thereof. […]” for “thereof.”
(§2) In trial (B), the cell lines of NTUB1, PC3, and SV-HUC1 are prepared in 96-well plates and co-incubated with the compounds 21, 23 or 25 in various concentrations of 0, 0.3, 1, 3, 5, 10, 30 and 50 μM, to analyze cytotoxic effects against either cancer cell or normal cells via a modified 3-[4,5-dimethylthiazol-2-yl]-2,5-diphenyltetrazolium bromide (MTT, Sigma Chemical Co.) assay. […] At co-incubation, 50 μL of MTT (2 mg/mL in PB) is added to each well to react for 3 hours, followed by centrifugating the 96-well plates at 1000 g for 10 min to remove supernatant, adding 150 μL DMSO in each well of the 96-well plates, and determining viability rates of the NTUB1, PC3, and SV-HUC1 cells separately by an absorbance spectrometry at 540 nm with a MRX (DYNEXCO) microplate reader.

In data set [2] the test system is human prostate cancer cell line PC3. Briefly: Trial (B): MTT cytotoxicity assay, 72 hours. Format: cell-based. The settings on record: 0-50 μM.
Text: as §1, with “thereof. […]” for “thereof.”
as §2

In data set [3] the test system is immortalized normal human urothelial cells SV-HUC1. Briefly: Trial (B): MTT assay on normal cells, 72 hours. Format: cell-based. Conditions: 0-50 μM.
Text: as §1, with “thereof. […]” for “thereof.”
as §2

Data set [4] relates to NTUB1 cells. Put plainly: Trial (D): production of reactive oxygen species by flow cytometry (DCF). Format: cell-based, human. Conditions: 24 hours. How it is done:
In trial (D), production of reactive oxygen species (ROS) is analyzed by flow cytometry, since the levels of ROS play an important role in apoptosis.
Referring to TABLE 4, the NTUB1 cells at a density of 8×10^5 cells/ml are prepared and assigned into 5 groups, including D1 to D5, to incubate in various medium for 24 hours. Next, 10 μM of 2,7-dichlorodihydrofluorescein diacetate (H2DCFHDA; Molecular Probes, Eugene, Oreg.) is added to the NTUB1 cells of each group 30 minutes prior than harvest, followed by collecting the NTUB1 cells of each group respectively and washing with PBS buffer. With such arrangement, the 2,7-dichlorodihydrofluorescein diacetate will penetrate into cells, interact with esterase, and degrade to 2,7-dichlorofluorescein (DCF) having green fluorescein, which can be determined by flow cytometer. In trial (D), green fluorescence of intracellular DCF in each group are analyzed immediately by FACScan flow cytometer (Becton Dickinson) at a wavelength of 525 nm.

For data set [5], the system named is NTUB1 cells. Put plainly: Trial (E): cell cycle progression by flow cytometry (propidium iodide). The class given is cell-based, human. Details: Sub-G1 / G1: unit not given here. Conditions: 24 hours, NTUB1. How it is done:
In order to determine a relationship between the derivatives of 18β-glycyrrhetinic acid of the present invention and cell cycle arrest, trial (E) is carried out by analyzing cell cycle progression by flow cytometry. […] After that, cell cycle progression of each group is determined respectively by incubating with 50 μg/mL propidium iodide (Sigma, Co) and 50 μg/mL RNase A (Sigma, Co) in PBS at room temperature for 30 min, and analyzing by FACScan flow cytometer and Cell Quest sofeware.

A further data set deals with p-p53 (Ser15). Briefly: Trial (G): expression of p53 / p-p53 by Western blot. The class given is cell-based, human. The settings on record: NAC with 50 μM 25, 24 hours, NTUB1. As to the method:
In trial (G), expression of p53 is monitored via Western blot analysis in accordance with a journal article published by Son et al., at 2010 in Toxicol. Appl. Pharmacol., in which overproduction ROS induced p53 suppression is observed.
Referring to TABLE 7, the NTUB1 cells at a density of 8×10^5 cells/ml are prepared and assigned into 9 groups, including G1-1 to G1-5 and G2-1 to G2-4, to incubate in various medium for 24 hours, followed by harvesting in trypsinization, resuspending in PBS till at a suitable density and collecting the NTUB1 cells of each group respectively.
Next, the NTUB1 cells of each group are further diluted with equal volume of 2× sample buffer, boiled for 10 minutes twice to denature protein therein, and analyzed by SDS-PAGE. After that, proteins on SDS-PAGE datum are transferred to nitrocellulose membranes (Millipore, Billerica, Mass., USA) using a semi-dry blotter, followed by blocking with 5% (w/v) skimmed milk in TBST buffer (100 mM Tris-HCl (pH 7.5), 150 mM NaCl and 0.1% Tween-20), incubating with specific antibodies [including antibodies specific for b-acctin (NB600-501), p-p53 (Ser15) (9284) and p53 (DO1)]. at 4° C. overnight, washing with TBST buffer again and incubated with secondary antibody at room temperature. Finally, western data of each group are visualized on Fuji SuperRX film. […]

For the compound `C=C(C)[C@@H]1CC[C@]2(C)[C@H](C(=O)C=C3[C@@H]4C[C@@](C)(C(=O)NC(C)C)CC[C@]4(C)CC[C@]32C)[C@@]1(C)CCC(=O)OCC` [Compound 21, 30-isopropyl carbamoyl-11-oxo-18β-3,4-seco-olean-4(23),12-dien 3-ethyl ester], the “cytotoxic effect against cancer cell” value in data set [1] was “significantly suppress the growth of cancer cells with a lower concentrate”. The IC50 in data set [1] was 19.4 ± 19.2 µM. Further, the “cytotoxic effect (survival ratio, FIGS. 4-6)” value in the data set with NTUB1 is given as “cytotoxic effects against to the cancer cells in a dose-dependent manner, particularly in against to NTUB1 cell”; in data set [2] it was “cytotoxic effects against to the cancer cells in a dose-dependent manner”. Moreover, the “effect on growth of normal cells (survival ratio, FIGS. 4-6)” value in data set [3] is on record as “enhance the growth of SV-HUC1 cells”.

In the case of `C=C(C)[C@@H]1CC[C@]2(C)[C@H](C(=O)C=C3[C@@H]4C[C@@](C)(C(=O)NC(C)C)CC[C@]4(C)CC[C@]32C)[C@@]1(C)CCC(=O)NCC` [Compound 23], in data set [1], the “cytotoxic effect against cancer cell” value is reported as “significantly suppress the growth of cancer cells with a lower concentrate” and the IC50 came to 12.8 ± 2.1 µM. Moreover, the “cytotoxic effect (survival ratio, FIGS. 4-6)” value with NTUB1 is “cytotoxic effects against to the cancer cells in a dose-dependent manner, particularly in against to NTUB1 cell”. Further, the “cytotoxic effect (survival ratio, FIGS. 4-6)” value in data set [2] is recorded as “cytotoxic effects against to the cancer cells in a dose-dependent manner”. Moreover, the “effect on growth of normal cells (survival ratio, FIGS. 4-6)” value in data set [3] is reported as “enhance the growth of SV-HUC1 cells”.

As for `CC(=O)N[C@@H](CS)C(=O)O` [NAC, reference compound], in the data set with NTUB1 cells [4] (1 mM), the “ROS (%)” value worked out at 26.1%. Besides, in the data set on NTUB1 cells [5] (1 mM), the G1 was found to be 44.41, the S was found to be 29.18 and the Sub-G1 was 2.66. This compound returned a G2/M in the data set on NTUB1 cells [5] of 20.18. For the same compound, in the data set on p-p53 (Ser15), the “effect on p53 phosphorylation stimulated by 25 (Western blot, FIG. 10)” value is given as “prevents p53 phosphorylation that stimulated by 25”.

In the case of `N.N.[Cl][Pt][Cl]` [cisplatin, cis-diamminedichloroplatinum II, reference compound], the IC50 in data set [1] was 3.27 ± 0.1 µM. Further, the “ROS (%)” value in the data set with NTUB1 cells [4] (20 μM) turned out to be 63.1%. In the data set with NTUB1 cells [5] (20 μM), this compound gave a G1 of 60.91, a G2/M of 6.65, an S of 22.09 and a Sub-G1 of 10.35.
